Patent US9492468B2, “Methods and compositions for treatment of acute heart failure” (PERICOR THERAPEUTICS, INC., priority 2008, dated 2016)

Assays:
NT-ProBNP = assay: Plasma NT-proBNP, 6 hours infusion study; type: in vivo, dog; details: HF dogs n=6; for Plasma NT-ProBNP: iv 10 μg/kg/min constant infusion
Method: Six heart failure dogs described in Example 1 were used. Studies using active drug and placebo were performed in each dog in random order a minimum of one week apart. After baseline hemodynamic, angiographic and echocardiographic measurements, GP-531 tartrate or placebo was administered as a continuous constant intravenous infusion for 6 hours. The dose of GP-531 tartrate was 10 μg/kg/min. Complete hemodynamic, angiographic and echocardiographic measurements were made during baseline, and at 1, 2, 3, 4, 5 and 6 hours after initiating drug infusion. In addition, myocardial oxygen consumption (MVO2) was measured at baseline and 4 and 6 hours after initiating drug or saline infusion. LV pressure-volume relationships (P-V Loops) were also measured at baseline and at 6 hours after initiating drug or saline infusion to assess load independent contractility and relaxation. Venous blood samples were obtained at baseline and hourly thereafter. Blood samples (at least […]) were centrifuged at 3000 rpm for 10 minutes and plasma withdrawn and placed in cryostorage tubes and stored upright at −20° C. until needed. Venous blood samples were used to evaluate plasma levels of troponin-I and plasma levels of n-terminal pro-brain natriuretic peptide (NT-proBNP).
Plasma biomarkers were measured in all dogs at all study time points. Troponin I (TnI) was determined in plasma based on the principle of the double antibody sandwich enzyme-linked immunosorbent assay (ELISA) (Hirano, T., et al, Immunol Today 1990, 11:443-449) and NT-pro-BNP based on competitive ELISA (Bonow, R. O. Circulation 1996, 93:1946-1950). Both biomarkers were assayed using commercially available assay kits. Kits for NT-proBNP and TnI were purchased from ALPCO Diagnostics, Salem, N.H. Using standard curves and software, the concentration of each biomarker was expressed as ng/ml for TnI and fmol/ml for NT-proBNP.

A1 receptors = target: T1, A1 receptors (Homo sapiens, UniProt P30542); assay: Ligand status at adenosine A1 receptor; type: binding
T1 sequence (P30542 1-326): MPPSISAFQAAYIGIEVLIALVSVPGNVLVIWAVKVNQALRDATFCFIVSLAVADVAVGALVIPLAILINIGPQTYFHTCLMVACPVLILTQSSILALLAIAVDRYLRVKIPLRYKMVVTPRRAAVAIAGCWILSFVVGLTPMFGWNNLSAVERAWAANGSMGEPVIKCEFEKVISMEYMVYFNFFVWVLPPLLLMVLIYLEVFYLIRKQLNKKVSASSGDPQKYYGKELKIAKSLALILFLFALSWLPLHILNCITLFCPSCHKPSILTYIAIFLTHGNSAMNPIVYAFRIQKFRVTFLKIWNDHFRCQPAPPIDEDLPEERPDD

A2 receptors = assay: Ligand status at adenosine A2 receptor; type: binding
[1] = Octanol:water partition coefficient; type: physicochemical; details: read-out: Octanol: water partition coefficient (log P)
Description: Administering a better absorbed more lipophilic prodrug, which is subsequently hydrolysed to GP531, achieves an increase in the systemic availability of GP531.

NC(=O)c1ncn(C2OC(CNCc3ccccc3)C(O)C2O)c1N [GP-531, 5-amino-1-β-D-(5-benzylamino-5-deoxy-1-β-D-ribofuranosyl)imidazole-4 carboxamide]
Plasma NT-ProBNP (NT-ProBNP; 1 h): 140 ± 13 fmol/mL
Plasma NT-ProBNP (NT-ProBNP; 2 h): 131 ± 11 fmol/mL
Plasma NT-ProBNP (NT-ProBNP; 3 h): 127 ± 12 fmol/mL
Plasma NT-ProBNP (NT-ProBNP; 4 h): 134 ± 11 fmol/mL
Plasma NT-ProBNP (NT-ProBNP; 5 h): 130 ± 10 fmol/mL
Plasma NT-ProBNP (NT-ProBNP; 6 h): 122 ± 10 fmol/mL
Effect on plasma NT-proBNP (NT-ProBNP; iv 10 μg/kg/min for 6 h): significantly reduced
Ligand for A1 receptors (A1 receptors): has not been shown to be a ligand
Ligand for A2 receptors (A2 receptors): has not been shown to be a ligand
logP [1]: -0.91
